The values below come from patent US20240262823A1, “PHARMACEUTICALLY ACCEPTABLE SALT OF PYRAZOLOHETEROARYL DERIVATIVE AND CRYSTAL FORM THEREOF” (JIANGSU HENGRUI PHARMACEUTICALS CO., LTD., priority 2021, published 2024).

The IC50 is the concentration needed to halve the response being measured. Broadly, the AUC is the area under the concentration-time curve, a measure of exposure. Usually MRT stands for the average time that molecules of a dose stay in the body.

Series [1] can be described thus: Long-term/accelerated stability test of crystalline salt forms in sealed aluminum foil bags. In kind it is physicochemical. Conditions: for Crystalline form: after storage. The procedure: The crystalline form α of mesylate, the crystalline form α of sulfate, the crystalline form I of maleate, the crystalline form a of p-toluenesulfonate and the crystalline form a of oxalate were stored in sealed aluminum foil bags and subjected to stability test under the conditions of −20° C., 4° C., 25° C./60% RH and 40° C./75% RH.

The target in series [2] is ATR enzyme (Homo sapiens (Human), UniProt Q13535). Kind of series: Inhibitory effect on ATR enzyme (HTRF, phospho-p53). The series is classed as biochemical. The source says:
The following method was used to determine the inhibitory effect of the compounds disclosed herein on ATR enzyme. The experimental method was briefly described as follows:
• 1. ATR enzyme (Eurofins Pharma Discovery Services, 14-953-M) • 2. GST-tag P53 protein (Eurofins Pharma Discovery Services, 14-952-M) • 3. 384-well plate (Thermo Scientific, 267462) • 4. U-shaped bottom 96-well plate (Corning, 3795) • 5. MAb Anti-phospho p53-Eu cryptate (Cisbio, 61P08KAE) • 6. MAb Anti GST-d2 (Cisbio, 61GSTDLF) • 7. ATP solution (Promega, V916B) • 8. EDTA (Thermo Scientific, AM9260G) • 9. HEPES (Gibco, 15630-080) • 10. Microplate reader (BMG, PHERAsta)
1 nM ATR enzyme, 50 nM P53 protein, 7.435 μM ATP and small molecule compounds of different concentrations (serially 3-fold diluted from 1 μM to the 11th concentration) were mixed and incubated at room temperature for 2 h. A terminating buffer (12.5 mM HEPES, 250 mM EDTA) was added. The mixture was well mixed before 0.42 ng/well of mAb anti-phospho p53-Eu cryptate and 25 ng/well of mAb anti GST-d2 were added. The mixture was incubated overnight at room temperature, and the fluorescence signals at 620 nm and 665 nm were detected using a PHERAstar system. Data were processed using GraphPad software.
On the technique in general: In TR-FRET formats the signal depends on donor and acceptor labels being close together.

Series [3] deals with LoVo cells. Kind of series: Cell proliferation assay (intracellular ATP content, CellTiter-Glo). The series is classed as cell-based, human. The settings on record: 3 days. The source says: The following method evaluates the inhibitory effect of the compounds disclosed herein on the proliferation of LoVo cells via IC50 by measuring the intracellular ATP content. The experimental method was briefly described as follows:
• 1. LoVo, human colon cancer cells (Cobioer, Nanjing, CBP60032) • 2. Fetal bovine serum (GIBCO, 10091-148) • 3. F-12K Medium (Gibco, 21127030) • 4. CellTite-Glo reagent (Promega, G7573) • 5. 96-well cell culture plate (Corning, 3903) • 6. Pancreatin (Invitrogen, 25200-072) • 7. Microplate reader (BMG, PHERAsta) • 8. Cell counter (Countstar, Shanghai, IC1000)
LoVo cells were cultured in an F-12K culture medium containing 10% of FBS, and passaged twice or thrice a week in a passage ratio of 1:3 or 1:5. During passage, cells were digested by pancreatin, transferred to a centrifuge tube, and centrifuged for 3 min at 1200 rpm. The supernatant was discarded, and fresh culture medium was added to resuspend the cells. To a 96-well cell culture plate, 90 μL of the cell suspension was added at a density of 3.88×10^4 cells/mL. To peripheral wells of the 96-well plate, only 100 μL of complete medium was added. […]
The test samples were each diluted to 2 mM in DMSO and serially 3-fold diluted to the 10th concentration. […] The chemiluminescence signals were read by a PHERAstar system, and the data were processed by GraphPad software.

A short description of series [4]: Pharmacokinetic study in rats after intragastric administration. In kind it is in vivo. The settings on record: both sexes, rat, plasma, po, SD rats, 2 mg/kg. The procedure: The drug concentrations in the plasma of the test animals (rats) at different time points after intragastric administration of the compound of Example 1 were determined by an LC/MS/MS method. The pharmacokinetic behavior in rats of the compound disclosed herein was studied and its pharmacokinetic profile was evaluated.
12 healthy adult SD rats (half male and half female; purchased from Vital River) were evenly divided into 3 groups of 4.
A certain amount of the compound was added to a mixed solvent containing 5% of DMSO, 5% of Tween 80 and 90% of normal saline to obtain a colorless and clear solution.
SD rats were intragastrically administered with the compound after fasting overnight, at a dose of 2 mg/kg and a volume of 10.0 mL/kg.
Rats were intragastrically administered with the compound of Examples 1. 0.2 mL of blood was collected from the orbit pre-dose and at 0.25, 0.5, 1.0, 2.0, 4.0, 6.0, 8.0, 11.0 and 24.0 h post-dose. The blood samples were transferred to EDTA-K2kk anticoagulation tubes, centrifuged at 4° C. and 11000 rpm for 5 min to separate out plasma. The plasma samples were stored at −20° C. The rats were fed 2 h after administration.
The plasma concentration of the compound in rats after intragastric administration was determined: 25 μL of rat plasma at each time point post-dose was mixed with 50 μL of internal standard and 175 μL of acetonitrile; the mixture was vortexed for 5 min and centrifuged for 10 min at 4000 rpm. 1 μL of supernatant was taken for LC/MS/MS analysis.

[5] abbreviates: long-term/accelerated stability test, overall.
Where [6] appears, read: Initial, printed in the 25° C./60% RH row.

ATR enzyme, sequence (Q13535 whole entry): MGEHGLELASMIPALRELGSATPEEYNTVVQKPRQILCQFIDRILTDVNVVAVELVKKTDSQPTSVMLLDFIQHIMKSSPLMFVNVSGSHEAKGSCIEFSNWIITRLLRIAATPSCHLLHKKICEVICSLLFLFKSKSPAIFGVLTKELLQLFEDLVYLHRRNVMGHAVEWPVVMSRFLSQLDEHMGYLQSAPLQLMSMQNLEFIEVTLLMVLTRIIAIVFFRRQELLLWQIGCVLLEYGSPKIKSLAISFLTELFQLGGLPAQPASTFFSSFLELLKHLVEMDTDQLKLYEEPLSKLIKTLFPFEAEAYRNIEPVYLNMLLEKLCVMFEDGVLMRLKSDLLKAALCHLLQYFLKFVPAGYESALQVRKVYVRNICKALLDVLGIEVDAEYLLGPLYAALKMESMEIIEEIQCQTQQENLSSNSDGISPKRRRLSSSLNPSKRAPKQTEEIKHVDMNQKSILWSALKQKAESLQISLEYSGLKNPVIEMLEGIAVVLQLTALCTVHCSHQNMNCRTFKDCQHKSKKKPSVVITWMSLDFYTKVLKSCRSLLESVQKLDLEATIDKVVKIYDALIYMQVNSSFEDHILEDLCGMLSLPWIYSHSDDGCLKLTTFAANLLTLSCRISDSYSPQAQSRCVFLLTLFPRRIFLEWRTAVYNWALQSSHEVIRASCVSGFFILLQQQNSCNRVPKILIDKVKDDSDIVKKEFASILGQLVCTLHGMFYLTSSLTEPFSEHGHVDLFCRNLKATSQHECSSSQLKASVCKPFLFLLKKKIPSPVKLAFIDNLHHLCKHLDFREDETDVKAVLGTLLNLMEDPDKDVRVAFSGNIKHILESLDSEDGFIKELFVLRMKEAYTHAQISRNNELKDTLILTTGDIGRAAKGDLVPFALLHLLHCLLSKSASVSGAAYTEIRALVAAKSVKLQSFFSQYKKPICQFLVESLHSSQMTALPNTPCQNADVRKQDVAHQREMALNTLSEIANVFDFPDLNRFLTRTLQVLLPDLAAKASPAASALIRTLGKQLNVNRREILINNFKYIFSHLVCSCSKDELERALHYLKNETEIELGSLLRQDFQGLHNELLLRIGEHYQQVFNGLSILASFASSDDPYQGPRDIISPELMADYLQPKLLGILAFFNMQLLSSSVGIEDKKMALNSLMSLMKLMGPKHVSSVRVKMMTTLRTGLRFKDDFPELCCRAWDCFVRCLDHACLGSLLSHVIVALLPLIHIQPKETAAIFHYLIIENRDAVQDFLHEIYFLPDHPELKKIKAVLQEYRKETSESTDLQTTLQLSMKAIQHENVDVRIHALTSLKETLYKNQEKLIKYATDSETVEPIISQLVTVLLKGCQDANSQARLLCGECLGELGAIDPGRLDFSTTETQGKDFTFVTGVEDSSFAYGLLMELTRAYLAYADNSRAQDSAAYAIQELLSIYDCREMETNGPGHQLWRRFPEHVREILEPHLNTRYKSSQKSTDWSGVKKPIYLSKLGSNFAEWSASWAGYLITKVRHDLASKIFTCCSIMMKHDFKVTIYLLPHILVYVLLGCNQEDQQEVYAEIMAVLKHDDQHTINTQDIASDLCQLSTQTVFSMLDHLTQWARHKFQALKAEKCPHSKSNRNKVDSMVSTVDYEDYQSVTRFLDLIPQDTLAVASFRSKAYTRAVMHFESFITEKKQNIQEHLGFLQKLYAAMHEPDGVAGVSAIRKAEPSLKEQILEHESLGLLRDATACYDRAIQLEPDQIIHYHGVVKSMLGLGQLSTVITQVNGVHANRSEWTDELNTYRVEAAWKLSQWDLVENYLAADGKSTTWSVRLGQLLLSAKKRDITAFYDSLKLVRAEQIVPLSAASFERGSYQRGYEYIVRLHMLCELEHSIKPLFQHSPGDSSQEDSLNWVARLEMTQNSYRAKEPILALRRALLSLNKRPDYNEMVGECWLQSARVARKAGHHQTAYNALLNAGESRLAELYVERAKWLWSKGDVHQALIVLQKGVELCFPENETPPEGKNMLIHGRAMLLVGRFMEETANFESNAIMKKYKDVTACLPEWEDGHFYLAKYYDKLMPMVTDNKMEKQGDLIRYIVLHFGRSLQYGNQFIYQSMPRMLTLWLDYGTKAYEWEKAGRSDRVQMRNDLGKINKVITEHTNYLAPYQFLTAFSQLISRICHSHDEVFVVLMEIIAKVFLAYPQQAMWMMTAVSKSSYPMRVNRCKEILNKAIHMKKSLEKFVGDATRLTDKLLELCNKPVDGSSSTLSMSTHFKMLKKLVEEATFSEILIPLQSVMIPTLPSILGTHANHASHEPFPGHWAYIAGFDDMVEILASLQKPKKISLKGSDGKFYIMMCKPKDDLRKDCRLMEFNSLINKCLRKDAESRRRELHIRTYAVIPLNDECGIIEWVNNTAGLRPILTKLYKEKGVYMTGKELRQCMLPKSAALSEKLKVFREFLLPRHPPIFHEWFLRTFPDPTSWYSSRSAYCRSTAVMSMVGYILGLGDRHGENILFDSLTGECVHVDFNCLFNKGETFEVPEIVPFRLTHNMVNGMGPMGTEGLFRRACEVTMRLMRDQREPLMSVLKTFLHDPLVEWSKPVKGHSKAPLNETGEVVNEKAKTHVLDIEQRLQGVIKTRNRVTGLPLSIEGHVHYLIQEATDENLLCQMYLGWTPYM
ATR enzyme, sequence (Q8WXE1 whole entry partner): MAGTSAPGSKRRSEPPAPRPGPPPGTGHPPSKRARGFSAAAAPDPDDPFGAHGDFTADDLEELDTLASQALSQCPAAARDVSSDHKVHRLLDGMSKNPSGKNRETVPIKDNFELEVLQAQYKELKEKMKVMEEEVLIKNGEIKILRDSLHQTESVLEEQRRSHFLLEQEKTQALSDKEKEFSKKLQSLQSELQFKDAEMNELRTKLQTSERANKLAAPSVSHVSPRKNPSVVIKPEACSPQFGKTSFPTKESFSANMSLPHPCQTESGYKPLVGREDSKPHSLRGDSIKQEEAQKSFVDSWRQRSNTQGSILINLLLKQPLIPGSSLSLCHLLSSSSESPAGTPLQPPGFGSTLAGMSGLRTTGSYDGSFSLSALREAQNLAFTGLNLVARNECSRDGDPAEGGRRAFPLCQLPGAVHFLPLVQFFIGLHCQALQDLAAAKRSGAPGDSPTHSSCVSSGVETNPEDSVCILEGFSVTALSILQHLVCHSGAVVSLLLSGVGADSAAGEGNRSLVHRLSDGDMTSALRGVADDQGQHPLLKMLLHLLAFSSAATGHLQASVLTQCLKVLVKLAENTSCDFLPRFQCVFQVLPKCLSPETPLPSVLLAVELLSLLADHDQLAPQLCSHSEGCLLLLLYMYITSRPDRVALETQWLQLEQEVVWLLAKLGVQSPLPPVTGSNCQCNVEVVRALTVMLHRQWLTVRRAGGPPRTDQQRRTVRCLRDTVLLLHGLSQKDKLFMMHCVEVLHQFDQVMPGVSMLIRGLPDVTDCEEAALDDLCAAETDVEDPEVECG

On to `CC1COCCN1c1cc(C(C)(C)C#N)c2c(n1)c(-c1cc[nH]n1)nn2C.O=C(O)C=CC(=O)O` (stereo not shown) [Crystalline form I of maleate], for which the “Purity (%)” value is reported as 98.99% in series [1] (4° C., 1 month); 98.99% in series [1] (4° C., 2 months); 99.00% in series [1] (4° C., 3 months); 98.84% in series [1] (25° C./60% RH, 1 month); 98.82% in series [1] (25° C./60% RH, 2 months); 98.77% in series [1] (25° C./60% RH, 3 months). Further, the “Purity (%)” value in series [1] (40° C./75% RH, 1 month) amounted to 98.59%; in series [1] (40° C./75% RH, 2 months) it was 98.26%; in series [1] (40° C./75% RH, 3 months), 98.30%; in series [1] (Initial), 98.97%; in series [1] (−20° C., 1 month) it was 99.04%; in series [1] (−20° C., 2 months), 99.00%. Besides, the “Purity (%)” value in series [1] (−20° C., 3 months) is listed as 99.00%. For the same compound, the Crystalline form entry in series [1] (4° C.), in series [1] (25° C./60% RH), in series [1] (40° C./75% RH) and in series [1] (−20° C.) was “Unchanged” each time. The “Chemical stability (in words)” value in series [1] (40° C. and 75% RH) is given as “slightly degraded”.

`CC1COCCN1c1cc(C(C)(C)C#N)c2c(n1)c(-c1cc[nH]n1)nn2C.CC1COCCN1c1cc(C(C)(C)C#N)c2c(n1)c(-c1cc[nH]n1)nn2C.O=C(O)C(=O)O` (stereo not shown) [Crystalline form a of oxalate]: the “Purity (%)” value stood at 99.54% in series [1] (4° C., 1 month); 99.60% in series [1] (4° C., 2 months); 99.55% in series [1] (4° C., 3 months); 99.53% in series [1] (25° C./60% RH, 1 month); 99.58% in series [1] (25° C./60% RH, 2 months); 99.52% in series [1] (25° C./60% RH, 3 months). In addition, the “Purity (%)” value in series [1] (40° C./75% RH, 1 month) is given as 99.40%; in series [1] (40° C./75% RH, 2 months), 99.39%; in series [1] (40° C./75% RH, 3 months), 99.40%; in series [1] (Initial), 99.57%; in series [1] (−20° C., 1 month), 99.57%; in series [1] (−20° C., 2 months), 99.51%. Also, the “Purity (%)” value in series [1] (−20° C., 3 months) amounted to 99.46%. In addition, the Crystalline form entry in series [1] (4° C.), in series [1] (25° C./60% RH), in series [1] (40° C./75% RH) and in series [1] (−20° C.) was “Unchanged” in each case. Also, in series [1] (setting [5]), the “Chemical stability (in words)” value is reported as “relatively stable”.

Regarding `CC1COCCN1c1cc(C(C)(C)C#N)c2c(n1)c(-c1cc[nH]n1)nn2C.Cc1ccc(S(=O)(=O)O)cc1` (stereo not shown) [Crystalline form a of p-toluenesulfonate], the “Purity (%)” value in series [1] (4° C., 1 month) is listed as 98.13%; in series [1] (4° C., 2 months), 98.19%; in series [1] (4° C., 3 months), 98.17%; in series [1] (25° C./60% RH, 1 month) it was 98.41%; in series [1] (25° C./60% RH, 2 months), 98.07%; in series [1] (25° C./60% RH, 3 months), 98.18%. Also, the “Purity (%)” value worked out at 97.31% in series [1] (40° C./75% RH, 1 month); 96.90% in series [1] (40° C./75% RH, 2 months); 95.57% in series [1] (40° C./75% RH, 3 months); 98.69% in series [1] (Initial); 98.46% in series [1] (−20° C., 1 month); 98.46% in series [1] (−20° C., 2 months). For the same compound, in series [1] (−20° C., 3 months), the “Purity (%)” value came out at 98.66%. The Crystalline form entry in series [1] (4° C.), in series [1] (25° C./60% RH), in series [1] (40° C./75% RH) and in series [1] (−20° C.) was “Unchanged” each time. Further, the “Chemical stability (in words)” value in series [1] (setting [5]) was “slightly poor stability”.

Take `CC1COCCN1c1cc(C(C)(C)C#N)c2c(n1)c(-c1cc[nH]n1)nn2C.CS(=O)(=O)O` (stereo not drawn) [Crystalline form α of mesylate]: the “Purity (%)” value in series [1] (4° C., 1 month) is on record as 98.66%; in series [1] (4° C., 2 months) it was 98.65%; in series [1] (4° C., 3 months), 98.64%; in series [1] (25° C./60% RH, 1 month), 98.53%; in series [1] (25° C./60% RH, 2 months), 98.54%; in series [1] (25° C./60% RH, 3 months) it was 98.62%. In addition, the “Purity (%)” value is listed as 97.00% in series [1] (40° C./75% RH, 1 month); 97.56% in series [1] (40° C./75% RH, 2 months); 95.66% in series [1] (40° C./75% RH, 3 months); 98.72% in series [1] (Initial); 98.49% in series [1] (setting [6]); 98.73% in series [1] (−20° C., 1 month). The “Purity (%)” value in series [1] (−20° C., 2 months) came to 98.69%; in series [1] (−20° C., 3 months), 98.61%. The Crystalline form entry in series [1] (4° C.), in series [1] (25° C./60% RH), in series [1] (40° C./75% RH) and in series [1] (−20° C.) was “Unchanged” in each case. The “Chemical stability (in words)” value in series [1] (40° C. and 75% RH) is “slightly degraded”.

As for `CC1COCCN1c1cc(C(C)(C)C#N)c2c(n1)c(-c1cc[nH]n1)nn2C.O=S(=O)(O)O` (stereo not drawn) [Crystalline form α of sulfate], the “Purity (%)” value in series [1] (4° C., 1 month) is 97.07%; in series [1] (4° C., 2 months) it was 97.29%; in series [1] (25° C./60% RH, 1 month) it was 93.00%; in series [1] (25° C./60% RH, 2 months) it was 92.90%; in series [1] (40° C./75% RH, 1 month) it was 89.37%; in series [1] (40° C./75% RH, 2 months), 83.97%. Moreover, the “Purity (%)” value in series [1] (Initial) amounted to 97.55%; in series [1] (setting [6]), 97.70%; in series [1] (−20° C., 1 month) it was 97.62%; in series [1] (−20° C., 2 months) it was 97.56%. For the same compound, the Crystalline form result in series [1] (4° C.), in series [1] (25° C./60% RH), in series [1] (40° C./75% RH) and in series [1] (−20° C.) was “Unchanged” throughout. The “Chemical stability (in words)” value in series [1] (setting [5]) was “slightly poor stability”.

Consider `C[C@@H]1COCCN1c1cc(C(C)(C)C#N)c2c(n1)c(-c1cc[nH]n1)nn2C` [Example 1, (R)-2-methyl-2-(1-methyl-5-(3-methylmorpholino)-3-(1H-pyrazol-3-yl)-1H-pyrazolo[4,3-b]pyridin-7-yl)propanenitrile], for which the IC50 in series [2] (1 nM ATR enzyme, 50 nM P53 protein, 7.435 μM ATP, 2 h, read-out: IC50 for ATR enzyme inhibition) stood at 3 nM. Moreover, the “Max Inhibition (%)” value in series [2] (ATR enzyme) was found to be 100%; in series [3], 93%. In addition, the Vd/F in series [4] (read-out: Apparent volume of distribution Vz/F) is 2.06 ± 1.22 L/kg. Also, the AUC in series [4] (read-out: Area under curve AUC) is 3200 ± 2750 ng·h/mL. Moreover, the CL/F in series [4] (read-out: Clearance CL/F) worked out at 17.7 ± 12.4 mL/min/kg. In series [4] (read-out: Half-life T1/2 (converted)), the half-life is 2.62 ± 2.48 h. For the same compound, the Cmax in series [4] (read-out: Plasma concentration Cmax) amounted to 1110 ± 394 ng/mL. For the same compound, the MRT in series [4] (read-out: Residence time MRT) was determined as 3.08 ± 2.31 h.
